Data set [1] is described as follows: Stability of the compound in human plasma assessed as half life […] by LC-MS analysis. Type of data set: ADME, cell-free.
A further data set addresses T1, Kallikrein-5 (Homo sapiens, UniProt Q9Y337).
T1 sequence (Q9Y337 whole entry): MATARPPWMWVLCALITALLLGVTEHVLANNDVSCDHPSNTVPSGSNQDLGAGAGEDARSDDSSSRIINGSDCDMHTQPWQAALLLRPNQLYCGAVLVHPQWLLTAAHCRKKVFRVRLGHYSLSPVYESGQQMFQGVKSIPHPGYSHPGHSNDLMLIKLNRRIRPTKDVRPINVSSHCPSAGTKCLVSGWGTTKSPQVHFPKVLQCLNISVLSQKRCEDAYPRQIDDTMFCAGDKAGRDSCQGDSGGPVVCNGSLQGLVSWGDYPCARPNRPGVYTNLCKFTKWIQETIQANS
Kind of data set: Inhibition of C-terminal poly-His-tagged human recombinant KLK5 (30 to 293 residues) transfected in CHO cells assessed as inhibition constant using Boc-VPR-AMC as fluorogenic substrate incubated for 30 mins by fluorescence plate reader assay. It is filed as cell-based.

Data set [2] has as its target Albumin (Homo sapiens, UniProt P02768). Kind of data set: Binding affinity to human serum albumin by fluorescence polarization assay. (In general: Fluorescence polarisation rises when a labelled molecule tumbles more slowly, as on binding a larger partner.)
Data set [3] addresses Kallikrein-7 (Homo sapiens, UniProt P49862). The experiment in a line: Inhibition of C-terminal poly-His-tagged human recombinant KLK7 (30 to 253 residues) transfected in CHO cells assessed as inhibition constant using KHLY-pNA as fluorogenic substrate incubated for 30 mins by fluorescence plate reader assay. It is filed as cell-based.
Data set [4] deals with Albumin (Mus musculus, UniProt P07724). The experiment in a line: Binding affinity to mouse serum albumin by fluorescence polarization assay.
Data set [5] addresses Kallikrein-7 (Mus musculus, UniProt Q91VE3). Kind of data set: Inhibition of mouse KLK7 assessed as inhibition constant. On the set-up: species or system CHO.
The nature of data set [6]: Plasma concentration in C57BL/6J mouse at 6.2 mg/kg, ip measured upto 24 hrs by RP-HPLC analysis. Type of data set: ADME, organism-based.
Data set [7] can be described thus: Half life in C57BL/6J mouse at 6.2 mg/kg, ip by RP-HPLC analysis. It is filed as ADME, organism-based. The following applies: in vivo.
A short description of data set [8]: Drug uptake in C57BL/6J mouse skin at 12.4 mg/kg, ip measured after 48 hrs by fluorescence imaging analysis. Type of data set: ADME, organism-based, Skin of body. The following applies: in vivo.
Data set [9] in a line: Half life in C57BL/6J mouse at 6.2 mg/kg, sc by RP-HPLC analysis. Type of data set: ADME, organism-based. The following applies: in vivo.
A short description of data set [10]: Drug degradation in C57BL/6J mouse at 6.2 mg/kg, ip measured after 18 to 28 mins by RP-HPLC analysis. The following applies: in vivo, time 18-28 min. It is filed as ADME, organism-based.
A short description of data set [11]: Drug degradation in C57BL/6J mouse at 6.2 mg/kg, iv measured at 21 to 22 mins by RP-HPLC analysis. Type of data set: ADME, organism-based. The following applies: in vivo, time 21-22 min.
Data set [12] is described as follows: Drug degradation in C57BL/6J mouse at 6.2 mg/kg, sc measured after 18 to 28 mins by RP-HPLC analysis. It is filed as ADME, organism-based. The following applies: in vivo, time 18-28 min.
Data set [13] can be described thus: Drug uptake in C57BL/6J mouse skin epidermis at 6.2 mg/kg, iv measured after 8 hrs by fluorescence imaging analysis. The following applies: in vivo. It is filed as ADME, organism-based.
Data set [14] is described as follows: Half life in C57BL/6J mouse at 6.2 mg/kg, iv by RP-HPLC analysis. The following applies: in vivo. Type of data set: ADME, organism-based.

Numbered stars: 1 amine (or outer) side, 2 acyl side, 3 side chain; on linkers, the order of the positions; unused ones are H or OH. Bridge positions count the residues as written; N and C are the ends. Peptide text beside a SMILES is read from it. CH2COCH2 = O=C(C[*:1])C[*:2]

Albumin (Homo sapiens, UniProt P02768), sequence (P02768 whole entry, the tested form may be a part): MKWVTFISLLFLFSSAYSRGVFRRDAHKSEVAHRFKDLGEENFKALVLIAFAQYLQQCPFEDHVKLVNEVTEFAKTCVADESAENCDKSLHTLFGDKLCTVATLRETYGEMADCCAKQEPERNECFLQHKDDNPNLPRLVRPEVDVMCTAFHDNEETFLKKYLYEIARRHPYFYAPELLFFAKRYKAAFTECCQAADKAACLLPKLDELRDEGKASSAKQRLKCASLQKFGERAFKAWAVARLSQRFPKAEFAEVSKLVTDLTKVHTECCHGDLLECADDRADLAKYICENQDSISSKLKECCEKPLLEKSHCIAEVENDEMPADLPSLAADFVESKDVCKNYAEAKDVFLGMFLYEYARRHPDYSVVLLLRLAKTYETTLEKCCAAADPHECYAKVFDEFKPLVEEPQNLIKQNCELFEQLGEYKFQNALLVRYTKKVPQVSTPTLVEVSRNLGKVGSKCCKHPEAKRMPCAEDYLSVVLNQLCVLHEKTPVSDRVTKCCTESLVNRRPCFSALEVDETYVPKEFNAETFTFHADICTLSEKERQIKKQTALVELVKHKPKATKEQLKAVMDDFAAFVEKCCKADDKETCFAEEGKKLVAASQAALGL
Kallikrein-7 (Homo sapiens, UniProt P49862), sequence (P49862 whole entry, the tested form may be a part): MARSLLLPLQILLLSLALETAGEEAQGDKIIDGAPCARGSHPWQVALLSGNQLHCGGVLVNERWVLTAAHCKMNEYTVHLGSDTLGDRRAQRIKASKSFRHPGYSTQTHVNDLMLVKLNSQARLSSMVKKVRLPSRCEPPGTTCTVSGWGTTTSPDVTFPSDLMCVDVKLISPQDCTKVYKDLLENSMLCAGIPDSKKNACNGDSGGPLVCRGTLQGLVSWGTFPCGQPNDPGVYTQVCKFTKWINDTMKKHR
Albumin (Mus musculus, UniProt P07724), sequence (P07724 whole entry): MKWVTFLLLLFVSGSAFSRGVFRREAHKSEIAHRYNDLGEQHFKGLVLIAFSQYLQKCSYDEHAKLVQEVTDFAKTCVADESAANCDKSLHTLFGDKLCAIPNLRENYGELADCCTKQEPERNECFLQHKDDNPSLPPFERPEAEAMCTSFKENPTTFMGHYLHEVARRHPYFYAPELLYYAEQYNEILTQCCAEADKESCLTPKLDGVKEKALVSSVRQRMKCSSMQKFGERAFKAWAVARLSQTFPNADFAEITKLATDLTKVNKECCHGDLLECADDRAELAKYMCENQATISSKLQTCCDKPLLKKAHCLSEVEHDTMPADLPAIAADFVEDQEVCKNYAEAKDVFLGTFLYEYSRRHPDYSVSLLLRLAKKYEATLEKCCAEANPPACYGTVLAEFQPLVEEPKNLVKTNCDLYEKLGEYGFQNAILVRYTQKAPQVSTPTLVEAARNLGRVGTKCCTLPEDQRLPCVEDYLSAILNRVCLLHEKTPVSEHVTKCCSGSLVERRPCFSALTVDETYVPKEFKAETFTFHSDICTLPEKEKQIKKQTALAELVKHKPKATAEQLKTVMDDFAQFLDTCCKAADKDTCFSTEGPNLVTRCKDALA
Kallikrein-7 (Mus musculus, UniProt Q91VE3), sequence (Q91VE3 whole entry): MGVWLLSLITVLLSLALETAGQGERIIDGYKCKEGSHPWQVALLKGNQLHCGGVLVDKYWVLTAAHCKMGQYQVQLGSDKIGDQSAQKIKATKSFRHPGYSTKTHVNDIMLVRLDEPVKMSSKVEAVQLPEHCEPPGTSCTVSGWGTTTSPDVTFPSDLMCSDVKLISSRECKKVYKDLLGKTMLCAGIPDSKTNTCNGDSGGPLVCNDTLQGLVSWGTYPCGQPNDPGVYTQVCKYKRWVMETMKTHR

Consider `CCCCCCCCCCCCCCCC(=O)NCCCC[C@H](NC(=O)[C@H](CCC(=O)O)NC(=O)[C@H](Cc1ccc(O)cc1)NC(=O)[C@H](CCC(=O)O)NC(=O)COCCOCCNC(=O)c1ccc(-c2c3ccc(=O)cc-3oc3cc(O)ccc23)c(C(=O)O)c1)C(=O)N[C@@H](CCC(=O)O)C(=O)N[C@@H](Cc1ccc(O)cc1)C(=O)N[C@@H](CCC(=O)O)C(=O)NCCOCCOCC(=O)NCCCC[C@H](NC(=O)CNC(=O)[C@@H]1CSCC(=O)CSC[C@H](NC(=O)[C@@H]2CCCN2)C(=O)N[C@@H](CC(C)C)C(=O)N[C@@H](Cc2ccc(O)cc2)C(=O)N[C@@H](CCCC)C(=O)N[C@@H](C)C(=O)NCC(=O)N1)C(=O)NCC(N)=O`, for which the half-life in data set [1] was over 96 h.

Consider `CCCCCCCCCCCCCCCC(=O)NCCCC[C@H](NC(=O)[C@H](CCC(=O)O)NC(=O)[C@H](Cc1ccc(O)cc1)NC(=O)[C@H](CCC(=O)O)NC(=O)COCCOCCNC(=O)c1ccc(-c2c3ccc(=O)cc-3oc3cc(O)ccc23)c(C(=O)O)c1)C(=O)N[C@@H](CCC(=O)O)C(=O)N[C@@H](Cc1ccc(O)cc1)C(=O)N[C@@H](CCC(=O)O)C(=O)NCCOCCOCC(=O)N[C@H]1CSCC(=O)CSC[C@@H](C(N)=O)NC(=O)[C@@H]2CCCN2C(=O)[C@H](Cc2ccc(O)cc2)NC(=O)[C@H](CCC(N)=O)NC(=O)[C@H](CCCNC(=N)N)NC(=O)[C@H]([C@@H](C)O)NC1=O`, for which the Ki on Kallikrein-5 was 0.023 µM. In addition, the Kd at Albumin [2] was 0.118 µM.

Regarding `CCCCCCCCCCCCCCCC(=O)NCCCC[C@H](NC(=O)[C@H](CCC(=O)O)NC(=O)[C@H](Cc1ccc(O)cc1)NC(=O)[C@H](CCC(=O)O)NC(=O)COCCOCCNC(=O)c1ccc(-c2c3ccc(=O)cc-3oc3cc(O)ccc23)c(C(=O)O)c1)C(=O)N[C@@H](CCC(=O)O)C(=O)N[C@@H](Cc1ccc(O)cc1)C(=O)N[C@@H](CCC(=O)O)C(=O)NCCOCCOCC(=O)NCCCC[C@H](NC(=O)CNC(=O)[C@@H]1CSCC(=O)CSC[C@H](NC(=O)[C@@H]2CCCN2)C(=O)N[C@@H](CC(C)C)C(=O)N[C@@H](Cc2ccc(O)cc2)C(=O)N[C@@H](CC(C)C)C(=O)N[C@@H](C)C(=O)N[C@@H](CCCNC(=N)N)C(=O)N1)C(=O)NCC(N)=O`, the Ki on Kallikrein-7 [3] is 0.031 µM. Moreover, the half-life in [1] was 0.4 h. The compound also yielded a Kd at Albumin [2] of 0.164 µM.

For `CC(C)C[C@@H]1NC(=O)[C@H](Cc2ccc(O)cc2)NC(=O)[C@H](CC(C)C)NC(=O)[C@@H](NC(=O)[C@@H]2CCCN2)CSCC(=O)CSC[C@@H](C(=O)N[C@@H](CO)C(=O)O)NC(=O)[C@H](CCCNC(=N)N)NC(=O)[C@H](C)NC1=O` (H-PCLYLARCS-OH; linker 2-8 via CH2COCH2), the Ki on Kallikrein-7 [3] (cho) amounted to 0.016 µM. For the same compound, in data set [1], the half-life was under 0.0833 h. Binding on Albumin [2] was characterised by a dissociation constant (Kd) of 0.039 µM.

Turning to `CCCCCCCCCCCCCCCC(=O)NCCCC[C@H](NC(=O)[C@H](CCC(=O)O)NC(=O)[C@H](Cc1ccc(O)cc1)NC(=O)[C@H](CCC(=O)O)NC(=O)COCCOCCNC(=O)c1ccc(-c2c3ccc(=O)cc-3oc3cc(O)ccc23)c(C(=O)O)c1)C(=O)N[C@@H](CCC(=O)O)C(=O)N[C@@H](Cc1ccc(O)cc1)C(=O)N[C@@H](CCC(=O)O)C(=O)NCCOCCOCC(=O)NCCCC[C@H](NC(=O)CNC(=O)[C@@H]1CSCC(=O)CSC[C@H](NC(=O)[C@@H]2CCCN2)C(=O)N[C@@H](CC(C)C)C(=O)N[C@@H](Cc2ccc(O)cc2)C(=O)N[C@@H](CCCC)C(=O)N[C@@H](C)C(=O)N[C@@H](CCCNC(N)=O)C(=O)N1)C(=O)NCC(N)=O`, in [1], the half-life was over 96 h.

Consider `CCCCCCCCCCCCCCCC(=O)NCCCC[C@H](NC(=O)[C@H](CCC(=O)O)NC(=O)[C@H](Cc1ccc(O)cc1)NC(=O)[C@H](CCC(=O)O)NC(=O)COCCOCCNC(=O)c1ccc(-c2c3ccc(=O)cc-3oc3cc(O)ccc23)c(C(=O)O)c1)C(=O)N[C@@H](CCC(=O)O)C(=O)N[C@@H](Cc1ccc(O)cc1)C(=O)N[C@@H](CCC(=O)O)C(=O)NCCOCCOCC(=O)NCCCC[C@H](NC(=O)CNC(=O)[C@@H]1CSCC(=O)CSC[C@H](NC(=O)CN)C(=O)N[C@@H]([C@@H](C)O)C(=O)N[C@@H](CCCNC(=N)N)C(=O)N[C@@H](CCC(N)=O)C(=O)N[C@@H](Cc2ccc(O)cc2)C(=O)N2CCC[C@H]2C(=O)N1)C(=O)NCC(N)=O`, for which the inhibition constant Ki at Kallikrein-5 worked out at 0.0012 µM; on Kallikrein-7 [5] it was 0.0041 µM. The half-life in data set [1] is 90 h; in data set [7], 5.1 h; in data set [9], 5.8 h; in data set [14], 4.4 h. Besides, the equilibrium dissociation constant (Kd) turned out to be 0.119 µM on Albumin [2] and 7 µM on Albumin [4]. The concentration at 24 h in data set [6] was 20 µM. Besides, the Drug uptake result in data set [8] and in data set [13] was “Active” throughout. Besides, the Stability entry in data set [10], in data set [11] and in data set [12] was “Unstable” in each case.

In general, half-life refers to the time needed for the level to fall by half in the phase considered. As a reminder, the Ki is a dissociation constant, usually derived from enzyme kinetics or from competition with a known ligand. One may read the Kd as the constant that tells how readily two partners part at equilibrium. A higher Kd goes with lower affinity.

Values taken from ChEMBL document CHEMBL5137037, “Phage Display Selected Cyclic Peptide Inhibitors of Kallikrein-Related Peptidases 5 and 7 and Their In Vivo Delivery to the Skin” (J Med Chem, 2022).
